Measured values as given in publication PMC7915732, “Screening of Yeast Display Libraries of Enzymatically Treated Peptides to Discover Macrocyclic Peptide Ligands” (International Journal of Molecular Sciences, 2021).

Tests used:
[1] = biological target: T1, WW domains of YAP (WW-YAP) (Homo sapiens, UniProt P46937); experiment: Static binding assay on peptide-Toyopearl resin, Langmuir isotherm, WW-YAP; conditions: binding capacity (mg protein/mL resin), PBS pH 7.4, 1 h room temperature, Langmuir fit, average of three independent replicates ± one standard error
T1 construct: which affords the expression of the WW domains of YAP (AAs 165–271); made in house; host or cells: Rosetta E. coli
T1 sequence (P46937 165-271): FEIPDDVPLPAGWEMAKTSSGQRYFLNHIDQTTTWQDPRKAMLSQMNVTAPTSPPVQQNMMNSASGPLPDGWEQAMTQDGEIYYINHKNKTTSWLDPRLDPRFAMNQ
Protocol: (§1) The known WW-binding peptide sequence [sequence] […] Protein adsorption isotherms were generated by incubating the peptide-functionalized resin with soluble N-terminal YAP or WW-YAP (20 μg/mL–3 mg/mL).
(§2) The supernatants were collected and analyzed by UV spectrophotometry at 280 nm to measure the amount of unbound protein. The amount of protein adsorbed on the resin was determined via mass balance. The KD describing the binding affinity of the soluble protein to the peptide-functionalized resin was determined by fitting the adsorption data to a Langmuir isotherm:(2) q=qmax[C]/KD+[C] where q is the amount of protein adsorbed on the resin (mg protein/mL resin), [C] is the unbound concentration of protein at equilibrium (mg protein/mL solution), qmax is the maximum protein binding capacity (mg protein/mL resin), and KD is the dissociation constant (mg protein/mL solution). Equation (2) was independently fit to the data obtained from triplicate adsorption studies, and the fitted values of KD and qmax were averaged across the repeats.

N-terminal YAP (N-YAP) = biological target: T2, N-terminal YAP (N-YAP) (Homo sapiens, UniProt P46937); experiment: Static binding assay on peptide-Toyopearl resin, Langmuir isotherm, N-terminal YAP; conditions: binding capacity (mg protein/mL resin), PBS pH 7.4, 1 h room temperature, Langmuir fit, average of three independent replicates ± one standard error
T2 construct: which affords the expression of N-terminal YAP (AAs 1–291); made in house; host or cells: Rosetta E. coli
T2 sequence (P46937 1-291): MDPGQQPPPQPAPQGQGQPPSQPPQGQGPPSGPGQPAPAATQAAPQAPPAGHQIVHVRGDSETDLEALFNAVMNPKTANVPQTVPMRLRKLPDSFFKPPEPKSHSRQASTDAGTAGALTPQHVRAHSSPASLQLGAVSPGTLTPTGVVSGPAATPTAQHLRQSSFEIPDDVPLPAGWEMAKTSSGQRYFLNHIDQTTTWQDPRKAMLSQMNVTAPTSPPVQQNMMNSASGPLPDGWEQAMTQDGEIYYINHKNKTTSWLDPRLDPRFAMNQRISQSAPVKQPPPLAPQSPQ
Protocol: as §1, §2

## RYSPPPPYSSHS [PTCH peptide]
[1]
  Qmax WW-YAP (resin): 8.3 ± 0.27 mg/mL
N-terminal YAP (N-YAP)
  Qmax N-YAP (resin): 4.11 ± 0.12 mg/mL
